Active and inactive are the calls of the source. No cut-off for these calls is given here.
Assays:
[1] = biological target: T1, Fatty acid-binding protein, adipocyte (Homo sapiens, UniProt P15090); test: Binding affinity to AFABP in […] C8PA cells assessed as blocked of protein interaction with hormone sensitive lipase at 10 uM after 2 to 4 hrs by FRET analysis; assay type: cell-based
Target sequence in this assay (P15090 2-132 limits assumed): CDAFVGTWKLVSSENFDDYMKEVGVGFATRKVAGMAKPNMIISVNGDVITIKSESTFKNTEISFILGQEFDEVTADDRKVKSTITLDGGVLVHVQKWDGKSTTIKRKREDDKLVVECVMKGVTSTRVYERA

Macrophage [2] = test: Antiinflammatory activity in C57BL/6J mouse macrophages assessed as inhibition of LPS-stimulated MCP1 release pretreated for 48 hrs before LPS challenge measured after 24 hrs by ELISA; assay type: functional, cell-based
[3] = biological target: T2, Fatty acid-binding protein, intestinal (Homo sapiens, UniProt P12104); test: Displacement of […] 1-anilinonaphthalene 8-sulfonic acid from IFABP expressed in Escherichia coli BL21 (DE3) by fluorescence spectrophotometry
T2 sequence (P12104 whole entry): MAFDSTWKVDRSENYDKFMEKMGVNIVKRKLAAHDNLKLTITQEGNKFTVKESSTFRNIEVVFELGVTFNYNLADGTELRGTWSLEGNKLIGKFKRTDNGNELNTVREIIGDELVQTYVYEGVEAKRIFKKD

[4] = biological target: Fatty acid-binding protein 5 (Homo sapiens, UniProt Q01469); test: Displacement of […] 1-anilinonaphthalene 8-sulfonic acid from EFABP expressed in Escherichia coli BL21 (DE3) by fluorescence spectrophotometry
[5] = biological target: T3, Fatty acid-binding protein, liver (Homo sapiens, UniProt P07148); test: Displacement of […] 1-anilinonaphthalene 8-sulfonic acid from LFABP expressed in Escherichia coli BL21 (DE3) by fluorescence spectrophotometry
T3 sequence (P07148 whole entry): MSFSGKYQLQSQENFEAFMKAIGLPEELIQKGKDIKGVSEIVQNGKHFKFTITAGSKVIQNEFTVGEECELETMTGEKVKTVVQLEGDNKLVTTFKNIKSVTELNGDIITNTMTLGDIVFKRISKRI

[6] = biological target: T1, Fatty acid-binding protein, adipocyte; test: Binding affinity to AFABP in forskolin-stimulated […] C8PA cells assessed as blocked of protein interaction with hormone sensitive lipase at 10 uM after 2 to 4 hrs by FRET analysis; assay type: cell-based
Target sequence in this assay (P15090 2-132 limits assumed): as the sequence (P15090 2-132 limits assumed) above

Macrophage [7] = test: Antiinflammatory activity in C57BL/6J mouse macrophages assessed as inhibition of LPS-stimulated TNFalpha release pretreated for 48 hrs before LPS challenge measured after 24 hrs by ELISA; assay type: functional, cell-based
[8] = biological target: T1, Fatty acid-binding protein, adipocyte; test: Binding affinity to AFABP in forskolin-stimulated […] C8PA cells assessed as blocked of protein interaction with hormone sensitive lipase at 1 uM after 2 to 4 hrs by FRET analysis; assay type: cell-based
Target sequence in this assay (P15090 2-132 limits assumed): as the sequence (P15090 2-132 limits assumed) above

Macrophage [9] = test: Antiinflammatory activity in C57BL/6J mouse macrophages assessed as inhibition of LPS-stimulated IL6 release pretreated for 48 hrs before LPS challenge measured after 24 hrs by ELISA; assay type: functional, cell-based
[10] = biological target: T4, Peroxisome proliferator-activated receptor gamma (Mus musculus) (UniProt P37238); test: Binding affinity to PPARgamma in C57BL/6J mouse macrophages assessed as increase in CD36 mRNA level at 500 nM after 48 hrs by real-time PCR analysis
T4 sequence (whole entry): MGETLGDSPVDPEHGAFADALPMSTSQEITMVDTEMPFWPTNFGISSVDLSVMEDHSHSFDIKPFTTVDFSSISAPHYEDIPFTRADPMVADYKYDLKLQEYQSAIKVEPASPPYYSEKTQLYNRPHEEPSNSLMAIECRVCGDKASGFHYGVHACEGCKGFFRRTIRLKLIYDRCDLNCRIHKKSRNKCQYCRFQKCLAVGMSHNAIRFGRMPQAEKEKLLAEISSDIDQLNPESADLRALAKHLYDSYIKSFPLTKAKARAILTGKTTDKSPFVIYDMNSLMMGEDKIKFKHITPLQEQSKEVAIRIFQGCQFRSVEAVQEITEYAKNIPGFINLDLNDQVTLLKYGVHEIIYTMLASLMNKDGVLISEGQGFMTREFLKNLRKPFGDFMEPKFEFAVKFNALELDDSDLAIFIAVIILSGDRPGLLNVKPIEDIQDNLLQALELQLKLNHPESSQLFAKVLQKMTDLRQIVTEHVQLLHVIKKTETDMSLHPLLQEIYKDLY

[11] = biological target: T1, Fatty acid-binding protein, adipocyte; test: Binding affinity to AFABP in […] C8PA cells assessed as blocked of protein interaction with hormone sensitive lipase at 1 uM after 2 to 4 hrs by FRET analysis; assay type: cell-based
Target sequence in this assay (P15090 2-132 limits assumed): as the sequence (P15090 2-132 limits assumed) above

[12] = biological target: T1, Fatty acid-binding protein, adipocyte; test: Displacement of […] 1-anilinonaphthalene 8-sulfonic acid from AFABP expressed in Escherichia coli BL21 (DE3) by fluorescence spectrophotometry
Target sequence in this assay (P15090 whole entry): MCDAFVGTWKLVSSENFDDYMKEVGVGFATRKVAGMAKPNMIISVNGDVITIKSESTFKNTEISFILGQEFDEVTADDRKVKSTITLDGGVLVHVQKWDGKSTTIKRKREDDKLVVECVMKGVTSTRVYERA

[13] = biological target: T5, Peroxisome proliferator-activated receptor gamma (Homo sapiens) (UniProt P37231); test: Activation of PPARgamma expressed in african green monkey CV1 cells at 0.5 to 25 uM after 24 hrs by luciferase reporter gene assay; assay type: cell-based; details: CV-1
T5 sequence (whole entry): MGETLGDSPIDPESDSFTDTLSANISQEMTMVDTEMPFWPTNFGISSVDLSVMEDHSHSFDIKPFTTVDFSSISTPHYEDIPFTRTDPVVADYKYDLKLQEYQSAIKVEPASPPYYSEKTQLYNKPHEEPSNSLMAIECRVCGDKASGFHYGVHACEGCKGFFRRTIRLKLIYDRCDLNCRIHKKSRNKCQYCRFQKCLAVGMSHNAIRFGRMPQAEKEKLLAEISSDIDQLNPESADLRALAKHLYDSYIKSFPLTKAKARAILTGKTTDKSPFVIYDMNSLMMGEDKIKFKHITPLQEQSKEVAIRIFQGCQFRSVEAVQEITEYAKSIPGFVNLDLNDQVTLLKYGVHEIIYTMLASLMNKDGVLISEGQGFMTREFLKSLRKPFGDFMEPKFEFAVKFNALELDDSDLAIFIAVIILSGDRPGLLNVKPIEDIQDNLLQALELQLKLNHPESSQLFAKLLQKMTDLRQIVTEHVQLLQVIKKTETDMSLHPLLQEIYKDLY

[14] = biological target: Fatty acid-binding protein, heart (Homo sapiens, UniProt P05413); test: Displacement of […] 1-anilinonaphthalene 8-sulfonic acid from HFABP expressed in Escherichia coli BL21 (DE3) by fluorescence spectrophotometry
[15] = biological target: T4, Peroxisome proliferator-activated receptor gamma (Mus musculus); test: Binding affinity to PPARgamma in C57BL/6J mouse macrophages assessed as increase in Cpt1alpha mRNA level at 500 nM after 48 hrs by real-time PCR analysis
[16] = biological target: T4, Peroxisome proliferator-activated receptor gamma (Mus musculus); test: Binding affinity to PPARgamma in C57BL/6J mouse macrophages assessed as increase in CD36 mRNA level at 5 uM after 48 hrs by real-time PCR analysis
[17] = biological target: T4, Peroxisome proliferator-activated receptor gamma (Mus musculus); test: Binding affinity to PPARgamma in C57BL/6J mouse macrophages assessed as increase in Cpt1alpha mRNA level at 5 uM after 48 hrs by real-time PCR analysis

Chain of Fatty acid-binding protein, heart (P05413 whole entry): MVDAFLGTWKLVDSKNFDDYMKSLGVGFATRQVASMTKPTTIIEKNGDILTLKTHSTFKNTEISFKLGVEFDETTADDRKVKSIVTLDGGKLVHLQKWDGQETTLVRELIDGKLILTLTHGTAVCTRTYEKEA
Chain of Fatty acid-binding protein 5 (Q01469 whole entry): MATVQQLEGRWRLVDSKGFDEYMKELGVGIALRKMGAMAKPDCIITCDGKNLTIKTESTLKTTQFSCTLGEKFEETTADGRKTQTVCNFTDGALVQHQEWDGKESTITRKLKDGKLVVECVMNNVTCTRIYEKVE

Activity [1] | Ki [3] | Ki [4] | Ki [5] | Activity [6] | Activity [8] | Activity [10] | Activity [11] | Ki [12] | Activity [13] | Ki [14] | Activity [15] | Activity [16] | Activity [17] | Structure (SMILES) | Activity (Macrophage [2]) | Activity (Macrophage [7]) | Activity (Macrophage [9])
Active | 6.57 µM | 3.4 µM | 8.17 µM | Active | inactive | inactive | Active | 0.67 µM | inactive | 9.07 µM | inactive | – | – | COC(=O)c1sc(-c2cccs2)cc1NC(=O)/C=C/C(=O)O | Active | Active | Active
– | – | – | – | – | – | – | – | – | – | – | – | Active | Active | CCCCC/C=C/C=C1/C(=O)C=C[C@@H]1C/C=C\CCCC(=O)O | – | – | –
